From US20240382488A1, “NEK7 INHIBITORS” (Halia Therapeutics, Inc., priority 2021, published 2024)

Target: T1, full-length recombinant human Nek7 (Homo sapiens, UniProt Q8TDX7)
T1 construct: full-length recombinant human Nek7; GST (N); purchased SignalChem N09-10G; host or cells: Sf9 insect cells (baculovirus)
Assay: NEK7 Enzymatic Assay
Assay type: biochemical
Conditions: radiometric [32P]-ATP kinase assay, casein substrate 20 μM, Nek7 70 nM, 2 hours room temperature
Method: Casein substrate (from bovine milk, hydrolyzed and partially dephosphorylated mixture of α, β and κ caseins, obtained from Sigma Aldrich, catalogue #C4765, diluted in distilled water to a final concentration of 1 mg/mL, assay concentration 20 μM) and full-length recombinant human Nek7 (expressed by baculovirus in Sf9 insect cells using a N-terminal GST tag, obtained from SignalChem, catalogue #N09-10G, 0.1 μg/μL, assay concentration 70 nM) were mixed in assay buffer (20 mM Hepes pH 7.5, 10 mM MgCl2, 1 mM EGTA, 0.02% Brij35, 0.02 mg/ml BSA, 0.1 mM […], 2 mM DTT, 1% DMSO). Compounds of interest (in DMSO, serial 3-fold dilution from 10 μM to 0.5 nM) or control (1% DMSO) were dispensed into the kinase reaction mixture by Acoustic technology (Echo550; nanoliter range). After incubation at room temperature for 20 minutes, the kinase reaction was initiated by addition of [^32P]-ATP (Specific activity 10 μCi/μl) and the mixture was incubated at room temperature for 2 hours. The reaction was then stopped by spotting the reaction mixture on strips of phosphocellulose P81 paper. Following washing, the radioactivity of the P81 paper was measured and kinase activity data were expressed as the percent remaining kinase activity in test samples compared to vehicle (dimethyl sulfoxide) reactions. IC50 values and curve fits were obtained using Prism (GraphPad Software).
Representative compounds were tested for inhibitory activity against NEK7 according to the procedure described above.

T1 sequence (Q8TDX7 whole entry): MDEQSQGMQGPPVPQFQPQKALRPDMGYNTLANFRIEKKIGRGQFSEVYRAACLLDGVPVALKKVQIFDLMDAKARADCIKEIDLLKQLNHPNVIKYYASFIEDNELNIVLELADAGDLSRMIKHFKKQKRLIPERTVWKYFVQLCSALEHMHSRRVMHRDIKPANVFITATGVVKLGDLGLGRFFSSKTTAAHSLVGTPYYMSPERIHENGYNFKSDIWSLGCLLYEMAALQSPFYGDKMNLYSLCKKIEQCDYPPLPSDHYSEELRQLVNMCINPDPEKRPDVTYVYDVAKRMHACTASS

IC50 [µM]	Compound
< 0.15	Nc1ncnc2c1c(-c1ccc3c(c1F)CCN3C(=O)Cc1cc(C(F)(F)F)ccc1F)cn2CCO [Compound I-18, 1-(5-(4-amino-7-(2-hydroxyethyl)-7H-pyr-rolo[2,3-d]pyrimidin-5-yl)-4-fluoroindolin-1-yl)-2-(2-fluoro-5-(tri-fluoromethyl)phenyl)-ethan-1-one]
< 0.15	COCCn1nc(-c2ccc3c(c2F)CCN3C(=O)Cc2cc(C(F)(F)F)ccc2F)c2c(N)ncnc21 [Compound I-24, 1-(5-(4-amino-1-(2-methoxyethyl)-1H-pyrazolo[3,4-d]pyrim-idin-3-yl)-4-fluoroindo-lin-1-yl)-2-(2-fluoro-5-(trifluoromethyl)phen-yl)ethan-1-one]
< 0.15	Nc1ncnc2c1c(-c1ccc3c(c1F)CCN3C(=O)Cc1cc(C(F)(F)F)ccc1F)cn2CCC(=O)O [Compound I-34, 3-(4-amino-5-(4-fluoro-1-(2-(2-fluoro-5-(tri-fluoromethyl)phenyl)-acetyl)indolin-5-yl)-7H-pyrrolo[2,3-d]pyrimidin-7-yl)propanoic acid]
> 1.5	CN1CCN(Cc2cc(CC(=O)N3CCc4c3ccc(-c3cn(C5CC5)c5ncnc(N)c35)c4F)cc(C(F)(F)F)c2)CC1 [Compound I-32, 1-(5-(4-amino-7-cyclo-propyl-7H-pyrrolo[2,3-d]pyrimidin-5-yl)-4-fluoroindolin-1-yl)-2-(3-((4-methylpiperazin-1-yl)methyl)-5-(tri-fluoromethyl)phenyl)-ethan-1-one]
< 0.15	CN1CCC(n2cc(-c3ccc4c(c3F)CCN4C(=O)Cc3cc(C(F)(F)F)ccc3F)c3c(N)ncnc32)CC1 [Compound I-28, 1-(5-(4-amino-7-(1-methylpiperidin-4-yl)-7H-pyrrolo[2,3-d]pyr-imidin-5-yl)-4-fluoro-indolin-1-yl)-2-(2-fluoro-5-(trifluorometh-yl)phenyl)ethan-1-one]
< 0.15	Nc1ncnc2c1c(-c1ccc3c(c1F)CCN3C(=O)Cc1cc(C(F)(F)F)ccc1F)nn2CCO [Compound I-19, 1-(5-(4-amino-1-(2-hydroxyethyl)-1H-pyr-azolo[3,4-d]pyrimidin-3-yl)-4-fluoroindolin-1-yl)-2-(2-fluoro-5-(tri-fluoromethyl)phenyl)-ethan-1-one]
< 0.15	CN1CCCC(n2cc(-c3ccc4c(c3F)CCN4C(=O)Cc3cc(C(F)(F)F)ccc3F)c3c(N)ncnc32)C1 (centres unmarked) [Compound I-31, 1-(5-(4-amino-7-(1-methylpiperidin-3-yl)-7H-pyrrolo[2,3-d]pyr-imidin-5-yl)-4-fluoroin-dolin-1-yl)-2-(2-fluoro-5-(trifluoromethyl)phen-yl)ethan-1-one]
< 0.15	CN1CC(n2cc(-c3ccc4c(c3F)CCN4C(=O)Cc3cc(C(F)(F)F)ccc3F)c3c(N)ncnc32)C1 [Compound I-33, 1-(5-(4-amino-7-(1-methylazetidin-3-yl)-7H-pyrrolo[2,3-d]pyr-imidin-5-yl)-4-fluoroin-dolin-1-yl)-2-(2-fluoro-5-(trifluoromethyl)phen-yl)ethan-1-one]
> 1.5	CN1CCN(Cc2ccc(C(F)(F)F)cc2CC(=O)N2CCc3c2ccc(-c2cn(C4CC4)c4ncnc(N)c24)c3F)CC1 [Compound I-30, 1-(5-(4-amino-7-cyclo-propyl-7H-pyrrolo[2,3-d]pyrimidin-5-yl)-4-fluoroindolin-1-yl)-2-(2-((4-methylpiperazin-1-yl)methyl)-5-(trifluoro-methyl)phenyl)ethan-1-one]
< 0.15	Nc1ncnc2c1c(-c1ccc3c(c1Cl)CCN3C(=O)Cc1cc(C(F)(F)F)ccc1F)nn2C1CC1 [Compound I-15, 1-(5-(4-amino-1-cyclo-propyl-1H-pyrazolo[3,4-d]pyrimidin-3-yl)-4-chloroindolin-1-yl)-2-(2-fluoro-5-(trifluoro-methyl)phenyl)ethan-1-one]
< 0.15	Cc1cccc(CC(=O)N2CCc3c2ccc(-c2cn(C4CC4)c4ncnc(N)c24)c3F)n1 [Compound I-21, 1-(5-(4-amino-7-cyclo-propyl-7H-pyrrolo[2,3-d]pyrimidin-5-yl)-4-fluoroindolin-1-yl)-2-(6-methylpyridin-2-yl)-ethan-1-one]
< 0.15	Nc1ncnc2c1c(-c1ccc3c(c1F)CCN3C(=O)Cc1cc(C(F)(F)F)ccc1F)cn2C1CC(O)C1 (centres unmarked) [Compound I-27, 1-(5-(4-amino-7-(3-hydroxycyclobutyl)-7H-pyrrolo[2,3-d]pyrimidin-5-yl)-4-fluoroindolin-1-yl)-2-(2-fluoro-5-(tri-fluoromethyl)phenyl)-ethan-1-one]
< 0.15	Nc1ncnc2c1c(-c1ccc3c(c1F)CCN3C(=O)Cc1cccc(C(F)(F)F)n1)cn2C1CC1 [Compound I-20, 1-(5-(4-amino-7-cyclo-propyl-7H-pyrrolo[2,3-d]pyrimidin-5-yl)-4-fluoroindolin-1-yl)-2-(6-(trifluoromethyl)pyr-idin-2-yl)ethan-1-one]
< 0.15	Nc1nccc2c1c(-c1ccc3c(c1F)CCN3C(=O)Cc1cc(C(F)(F)F)ccc1F)nn2C1CC1 [Compound I-29, 1-(5-(4-amino-1-cyclo-propyl-1H-pyrazolo[4,3-c]pyridin-3-yl)-4-fluoro-indolin-1-yl)-2-(2-fluoro-5-(trifluoromethyl)phen-yl)ethan-1-one]
< 0.15	Nc1ncnc2[nH]cc(-c3ccc4c(c3F)CCN4C(=O)Cc3cc(C(F)(F)F)ccc3F)c12 [Compound I-22, 1-(5-(4-amino-7H-pyr-rolo[2,3-d]pyrimidin-5-yl)-4-fluoroindolin-1-yl)-2-(2-fluoro-5-(tri-fluoromethyl)phenyl)-ethan-1-one]
< 0.15	COCCn1cc(-c2ccc3c(c2F)CCN3C(=O)Cc2cc(C(F)(F)F)ccc2F)c2c(N)ncnc21 [Compound I-26, 1-(5-(4-amino-7-(2-methoxyethyl)-7H-pyr-rolo[2,3-d]pyrimidin-5-yl)-4-fluoroindolin-1-yl)-2-(2-fluoro-5-(tri-fluoromethyl)phenyl)-ethan-1-one]
0.301 to 0.5	CN1CCN(Cc2ccc(CC(=O)N3CCc4c3ccc(-c3cn(C5CC5)c5ncnc(N)c35)c4F)cc2C(F)(F)F)CC1 [Compound I-25, 1-(5-(4-amino-7-cyclo-propyl-7H-pyrrolo[2,3-d]pyrimidin-5-yl)-4-fluoroindolin-1-yl)-2-(4-((4-methylpiperazin-1-yl)methyl)-3-(tri-fluoromethyl)phenyl)-ethan-1-one]
< 0.15	CC(C)(O)Cn1cc(-c2ccc3c(c2F)CCN3C(=O)Cc2cc(C(F)(F)F)ccc2F)c2c(N)ncnc21 [Compound I-23, 1-(5-(4-amino-7-(2-hydroxy-2-methylprop-yl)-7H-pyrrolo[2,3-d]-pyrimidin-5-yl)-4-fluoroindolin-1-yl)-2-(2-fluoro-5-(trifluoro-methyl)phenyl)ethan-1-one]
0.151 to 0.3	CC(C)n1cc(-c2ccc3c(c2F)CCN3C(=O)Cc2ccc(F)c(C(F)(F)F)c2)c2c(N)ncnc21 [Compound I-13, 1-(5-(4-amino-7-isoprop-yl-7H-pyrrolo[2,3-d]pyr-imidin-5-yl)-4-fluoroind-olin-1-yl)-2-(4-fluoro-3-(trifluoromethyl)phenyl)-ethan-1-one]
> 1.5	CC(C)n1nc(-c2ccc3c(c2F)CCN3C(=O)Cc2ccc(F)cc2)c2c(N)ncnc21 [Compound I-3, 1-(5-(4-amino-1-iso-propyl-1H-pyrazolo[3,4-d]pyrimidin-3-yl)-4-fluoroindolin-1-yl)-2-(4-fluorophenyl)ethan-1-one]
